According to US20120190620A1, “METHODS TO IDENTIFY TARGETS AND MOLECULES REGULATING PURINOSOMES AND THEIR USES” (priority 2010, published 2012):

Columns and labels:
Assay type in all cases: cell-based, human
[1] = test system: HeLa cells; experiment: Purinosome dynamics DMR screen, sequential order molecule, DMAT, TBB; details: for modulation of the DMAT signal / modulation of the TBB signal: adrenergic receptor ligand library, order ligand, TBB, FIG. 5, DMAT
Source text: A library of agonists for various different GPCRs were used to individually pretreat a confluent layer of Hela cells for about one hour, before sequential stimulation with DMAT and TBB, respectively. The responses were monitored using Epic® system.
A library of molecules targeting endogenous alpha2A and beta2 adrenergic receptors were used to individually pretreat a confluent layer of Hela cells for about one hour, before sequential stimulation with DMAT and TBB, respectively. The responses were monitored using Epic® system.
(§1) Epic® wavelength interrogation system (Corning Inc., Corning, N.Y.) was used for whole cell sensing. This system consists of a temperature-control unit, an optical detection unit, and an on-board liquid handling unit with robotics. The detection unit is centered on integrated fiber optics, and enables kinetic measures of cellular responses with a time interval of ˜15 sec. The compound solutions were introduced by using the on-board liquid handling unit (i.e., pippetting).
(§2) For biosensor cellular assays, compound solutions were made by diluting the stored concentrated solutions with the HBSS (1× Hanks balanced salt solution, plus 20 mM Hepes, pH 7.1), and transferred into a 384 well polypropylene compound storage plate to prepare a compound source plate. Two compound source plates were made separately when a two-step assay was performed. In parallel, the cells were washed twice with the HBSS and maintained in 30 μl of the HBSS to prepare a cell assay plate. Both the cell assay plate and the compound source plate(s) were then incubated in the hotel of the reader system. After incubation the baseline wavelengths of all biosensors in the cell assay microplate were recorded and normalized to zero. Afterwards, a 2 to 10 min continuous recording was carried out to establish a baseline, and to ensure that the cells reached a steady state. Cellular responses were then triggered by transferring 10 μl of the compound solutions into the cell assay plate using the on-board liquid handler.
(§3) All studies were carried out at a controlled temperature (28° C.). At least two independent sets of experiments, each with at least three replicates, were performed.
(§4) The upstream signaling pathways linking to the purinosome is unknown at the present time. To identify cellular targets and pathways that are involved in regulating purinosome dynamics, a library of agonists for a great number of G protein-coupled receptors and membrane bound receptor tyrosine kinases was made in house, and each agonist was used to stimulate a confluent layer of Hela cells, cultured using high initial seeding number (25k per well for 384 well Epic® cell culture compatible biosensor microplates) in purine rich medium (i.e., regular 10% FCS or FBS). The concentrations for all small organic molecules were 10 micromolar, whereas 1 micromolar for all small peptides, and 100 nanomolar for all protein factors (molecular weight >15k Da). The cellular responses to each agonist were recorded for about 1 hour, and used to determine the functional expression of their corresponding cognate receptor(s).
To examine the receptor whose signaling is involved in regulating the purinosome dynamics, Hela cells were pretreated individually with each agonist for about one hour, followed by sequential stimulation with DMAT (20 micromolar) and TBB (25 micromolar), each step about 1 hour.

[2] = test system: HeLa cells; experiment: Purinosome dynamics DMR screen, sequential order molecule, TBB, DMAT; details: agonist library; order agonist, TBB, DMAT; FIG. 4
Source text: A library of agonists for various different GPCRs were used to individually pretreat a confluent layer of Hela cells for about one hour, before sequential stimulation with TBB and DMAT, respectively. The responses were monitored using Epic® system.
(A) The dose-dependent DMR signals of Hela cells induced by alpha2A agonist clonidine. (B) The TBB DMR signal of Hela cells after pretreated with clonidine at different doses. (C) The dose-dependent DMR signals of pertussis toxin (PTX)-pretreated Hela cells induced by alpha2A agonist clonidine. (D) The TBB DMR signal of the PTX-pretreated Hela cells after stimulated with clonidine at different doses. The TBB concentration was 20 μM in both (C) and (D). The clonidine pretreatment occurred about one-hour before the TBB stimulation.
as §1, §2, §3, §4

[3] = test system: HeLa cells; experiment: Epic label-free biosensor DMR assay of compound-induced signals in HeLa cells; details: for effect of pretreatment on the sequential DMAT response / effect of pretreatment on the sequential TBB response: HeLa cells pretreated with the compound about 1 hr; for effect of pretreatment on the sequential DMAT response: then DMAT; for effect of pretreatment on the sequential TBB response: then TBB; for DMR signal induced by CK2 inhibitor: HeLa cells, regular serum medium, high initial seeding number
Source text: HeLa cells were obtained from American Type Cell Culture (Manassas, Va.). This cervical cancer cell line was maintained in regular serum medium (i.e., minimum essential medium (MEM) (Invitrogen) supplemented with 10% fetal bovine serum (FBS) and 1% Penicillin/streptomycin). To investigate the effects of purine depletion on the purinosome formation and dissociation, HeLa cells were maintained for at least two passages in “purine-depleted medium” prior cell assays. The purine depleted medium is a medium consisting of Roswell Park Memorial Institute 1640 (RPMI 1640) supplemented with dialyzed 5% FBS […]. FBS was dialyzed against 0.9% NaCl at 4° C. for ˜2 days using a 25 kDa MWCO dialysis membrane to remove purines. This process completely removes the purines normally present in FBS.
Cells were typically grown using ˜1 to 2×10^4 cells per well at passage 3 to 15 suspended in 50 μl of the corresponding culture medium in the biosensor microplate, and were cultured at 37° C. under air/5% CO2 for ˜1 day. The confluency for all cells at the time of assays was ˜100%.
as §1
The RWG biosensor is capable of detecting minute changes in local index of refraction near the sensor surface. Since the local index of refraction within a cell is a function of density and its distribution of biomass (e.g., proteins, molecular complexes), the biosensor exploits its evanescent wave to non-invasively detect ligand-induced dynamic mass redistribution in native cells. The evanescent wave extends into the cells and exponentially decays over distance, leading to a characteristic sensing volume of ˜150 nm, implying that any optical response mediated through the receptor activation only represents an average over the portion of the cell that the evanescent wave is sampling. The aggregation of many cellular events downstream the receptor activation determines the kinetics and amplitudes of a ligand-induced DMR.
as §2, §3

[4] = test system: purinosome complexes in Hela cells; experiment: Fluorescence imaging of GFP-hFGAMS clusters (purinosome complexes) in Hela cells; details: subsequent stimulation of the oxymetazoline-incubated Hela cells, purine rich medium
Method: The hFGAMS-GFP and hFGAMS-OFP constructs were prepared and used to transfect the before human cervical cancer cell line HeLa (An, S. et al. “Reversible compartmentalization of de novo purine biosynthetic complexes in living cells”. Science 2008, 320: 103-106). Briefly, HeLa cells were subjected to “purine-depleted medium”; Roswell Park Memorial Institute 1640 (RPMI 1640; Mediatech) supplemented with dialyzed 5% fetal bovine serum (FBS; Atlanta Biological) and 50 μg/mL gentamicin sulfate (Sigma), and “purine-rich medium”; Minimal Essential Medium (MEM; Mediatech) with 10% FBS and 50 μg/mL gentamicin sulfate. FBS was dialyzed against 0.9% NaCl at 4° C. for ˜2 days. Lipofectamine 2000 (Invitrogen) as a transfection reagent was used by following the manufacturer's protocol. Of note, an alternative purine-depleted medium (i.e. MEM, dialyzed 10% FBS and 50 μg/mL gentamicin sulfate) was evaluated with respect to purinosome formation in HeLa cells by transiently expressing hFGAMS-GFP.
All samples were imaged at ambient temperature (˜25° C.) with a 60× objective (1.49 numerical aperture; Nikon Apo TIRF) using a Photometrics CoolSnap ES2 CCD detector mounted onto a Nikon TE-2000E inverted microscop. Oregon Green 488 and GFP detection was accomplished using a S484/15x excitation filter (Chroma Technology), S517/30m emission filter (Chroma Technology) and Q505LP/HQ510LP dichroic (Chroma Technology); rhodamine and OFP detection was carried out using a S555/25x excitation filter (Chroma Technology), S605/40m emission filter (Chroma Technology) and Q575LP/HQ585LP dichroic (Chroma Technology). […]
To confirm the linkage of alpha2A, but not beta2AR, to purinosome formation, fluorescence imaging was used. […]
The biosensor screen data shown in FIG. 5 also indicate that certain alpha2A-AR antagonist can suppress the purinosome formation or even cause the dissociation of purinosome complexes. To test this, fluorescence imaging of GFP-hFGAMS in Hela cells were used.

[5] = GPCR/RTK agonist library, pretreated about one hour, order agonist, DMAT (20 micromolar), TBB (25 micromolar), FIG. 3

With `NCCc1ccc(O)c(O)c1` [dopamine] the “modulation of the DMAT DMR signal” value [1, 5] was “suppress”, the “modulation of the TBB DMR signal” value [1, 5] was “potentiate” and the “modulation of the DMAT signal” value [1] was “suppress”. For the same molecule, the “modulation of the TBB signal” value [1] was “potentiate” and the “modulation of the TBB DMR signal” value [2] was “selectively potentiate”.
For `Nc1ncnc2c1ncn2[C@@H]1O[C@H](COP(=O)(O)OP(=O)(O)OP(=O)(O)O)[C@@H](O)[C@H]1O` [ATP], the “modulation of the DMAT DMR signal” value [1, 5] was “selectively suppress” and the “modulation of the TBB DMR signal” value [2] was “selectively potentiate”.
`O=C(O)/C=C/c1cc(Br)c(Br)c(Br)c1Br` [TBCA, Tetrabromocinnamic Acid] was tested, and the “type of CK2 inhibitor by label-free biosensor cellular assay” value [3] was “purinosome promoting agent”, the “effect of pretreatment on the sequential DMAT response” value [3] was “desensitized” and the “effect of pretreatment on the sequential TBB response” value [3] was “slightly potentiated”. The “DMR signal induced by CK2 inhibitor” value [3] was “DMR signals similar to the DMAT response”.
With `CNC[C@H](O)c1ccc(O)c(O)c1` [epinephrine, Epinephrine] the “modulation of the DMAT DMR signal” value [1, 5] was “suppress”, the “modulation of the TBB DMR signal” value [1, 5] was “potentiate” and the “modulation of the DMAT signal” value [1] was “suppress”. The “modulation of the TBB signal” value [1] was “potentiate” and the “modulation of the TBB DMR signal” value [2] was “selectively potentiate”.
`O=c1ccn([C@@H]2O[C@H](COP(=O)(O)OP(=O)(O)O)[C@@H](O)[C@H]2O)c(=O)[nH]1` [UDP] was tested, and the “modulation of the DMAT DMR signal” value [1, 5] was “selectively suppress” and the “modulation of the TBB DMR signal” value [2] was “selectively potentiate”.
For `COC(=O)[C@@H]1[C@H]2C[C@H]3c4[nH]c5ccccc5c4CCN3C[C@@H]2CC[C@@H]1O` [yohimbine], the “effect on oxymetazoline induced purinosome complexes” value [4] was “dissociation of the purinosome complexes”.
`CCCCC[C@H](O)/C=C/[C@H]1C(=O)C[C@H](O)[C@@H]1C/C=C\CCCC(=O)O` [PGD2, prostaglandin D2] was tested, and the “modulation of the DMAT DMR signal” value [1, 5] was “potentiate”, the “modulation of the TBB DMR signal” value [1, 5] was “no or little impact” and the “modulation of the TBB DMR signal” value [2] was “selectively suppress”.
`C[C@H](N)Cn1ccc2cc(F)c(Cl)cc21` [Ro600175] was tested, and the “modulation of the DMAT DMR signal” value [1] was “potentiate”, the “modulation of the TBB DMR signal” value [1] was “no or little impact” and the “modulation of the DMAT DMR signal” value [2] was “selectively potentiate”.
With `CS(=O)(=O)Nc1c(O)ccc2c1CCCC2C1=NCCN1` (centres unmarked) [A61603] the “modulation of the DMAT DMR signal” value [1, 5] was “suppress”, the “modulation of the TBB DMR signal” value [1, 5] was “potentiate” and the “modulation of the DMAT signal” value [1] was “suppress”. For the same molecule, the “modulation of the TBB signal” value [1] was “potentiate” and the “modulation of the TBB DMR signal” value [2] was “selectively potentiate”.
With `Brc1c(Br)c(Br)c2[nH]cnc2c1Br` [TBBz, 4,5,6,7-tetrabromobenzimidazole] the “type of CK2 inhibitor by label-free biosensor cellular assay” value [3] was “purinosome disruption agent”.
`CCCCC[C@H](O)/C=C/[C@H]1[C@H](O)CC(=O)[C@@H]1C/C=C\CCCC(=O)O` [PGE2, peostaglandin E2] was tested, and the “modulation of the DMAT DMR signal” value [1, 5] was “potentiate”, the “modulation of the TBB DMR signal” value [1, 5] was “no or little impact” and the “modulation of the TBB DMR signal” value [2] was “selectively suppress”.
In the case of `CNC[C@H](O)c1cccc(O)c1` [phenylephrine, (R)-(−)-phenylephrine], the “modulation of the DMAT DMR signal” value [1, 5] is reported as “suppress”, the “modulation of the TBB DMR signal” value [1, 5] is reported as “potentiate” and the “modulation of the DMAT signal” value [1] is reported as “suppress”. The “modulation of the TBB signal” value [1] was “potentiate” and the “modulation of the TBB DMR signal” value [2] was “selectively potentiate”.
For “IGF1: insulin-like growth factor 1, the IGF1R agonist”, the “modulation of the TBB DMR signal” value [2] was “selectively potentiate”.
“EGF: epidermal growth factor, the EGFR agonist (NSDSECPLSHDGYCLHDGVCMYIEALDKYACNCVVGYIGERCQYRDLKWWELR; not fully specified; Epidermal growth factor; UniProt P01133 971-1023, looked up)” was tested, and the “modulation of the DMAT DMR signal” value [2] was “selectively suppress”.
`CCCCCCCCCCCCC/C=C/[C@@H](O)[C@@H](N)COP(=O)(O)O` [S1P, Sphingosine-1-phosphate] was tested, and the “modulation of the DMAT DMR signal” value [1, 5] was “selectively suppress” and the “modulation of the TBB DMR signal” value [2] was “selectively potentiate”.
In the case of lysophosphatidic Acid [LPA], the “modulation of the DMAT DMR signal” value [1, 5] is reported as “selectively suppress” and the “modulation of the TBB DMR signal” value [2] is reported as “selectively potentiate”.
`O=c1cc(-c2ccc(O)cc2)oc2cc(O)cc(O)c12` [apigenin] was tested, and the “DMR signal induced by CK2 inhibitor” value [3] was “DMR signals similar to the DMAT response”.
With “HGF: hepatocyte growth factor, the HGFR agonist” the “modulation of the TBB DMR signal” value [2] was “selectively potentiate”.
For `OC[C@H]1O[C@@H](n2cnc3cc(Cl)c(Cl)cc32)[C@H](O)[C@@H]1O` [DRB, 5,6-Dichlorobenzimidazole 1-β-D-ribofuranoside], the “effect of pretreatment on the sequential DMAT response” value [3] was “desensitized”, the “effect of pretreatment on the sequential TBB response” value [3] was “slightly potentiated” and the “DMR signal induced by CK2 inhibitor” value [3] was “DMR signals similar to the DMAT response”.
